For test [1], the system named is mold spores (Byssochlamyus nieva and Paecilomyces variotti). In words: Germination of bio-indicator mold spores with ascorbic acid and potassium sorbate. Format: cell-based. An excerpt:
Ascorbic acid may be incorporated as part of the microbiological chemical preservation system. Ascorbic acid is not generally considered an antimicrobial. Instead, ascorbic acid is understood to “preserve” food ingredients against oxidation. In this respect, ascorbic acid is understood to be “anti-oxidant” preservative.

For test [2], the system named is bio-indicator organisms (Zygosaccharomyce baili, Brettanomyces species, Saccharomyces cerevisiae, Paecilomyces lilacinus, Zygosaccharomyces bisporus …). As to the kind of experiment: Example 4: efficacy of DMDC alone in commercial product types and apple juice medium, 16 weeks. It is filed as cell-based. The protocol:
The efficacy of DMDC in a range of existing commercial product types was established in order to establish a baseline for future testing of products in development. A separate test of efficacy of DMDC alone in the test apple juice medium is used in comparison. Simply, four different products that are packaged without preservatives (aseptic package) were purchased from local markets.
The base test beverage formulation (Apple Juice Medium) was prepared as in other tests herewithin, and consisted of 4% apple juice, 68 g sucrose/L, 52 g glucose/L, 2 g fructose/L prepared in batch water that was formulated to 90 ppm hardness with calcium chloride and magnesium chloride. A pH of 3.4 was achieved through combinations of malic acid and sodium malate
Product was transferred to test vessels and vessels were inoculated with bio-indicator organisms. Immediately after inoculation, the test vessels were sealed with septum seal that allowed dosing of DMDC by Hamilton syringe. Dimethyl dicarbonate stock solution consisted of 1 ml of dimethyl dicarbonate (1.25 g) in 49 ml of 100% ethanol (25 mg/ml). […] After dosing with DMDC, the content of each test vessel was immediately mixed by vortex mixing. All testing was performed at ambient and test solutions were at ambient. […]

Test [3] has as its system bio-indicator organisms; mold strains M1 (Paecilomyces/Byssochalmys nieva) and M6 (Talaromyces flavus var. flavus). In words: Example 6: growth/no growth in enhanced water product pH 4.5, 16 weeks. Format: cell-based. The conditions noted are these: FIG. 5a; enhanced water pH 4.5; DMDC singular antimicrobial agent. The protocol: A single preparation of base beverage was employed to prepare each of five tests. The beverage formulation chosen mimics that of an enhanced water product and is composed per liter as follows 37.2 mg Acesulfame K+; 100mg Vitamin E acetate, 54.1 mg Vitamin B mix, 331 mg sucralose 748 mg grape flavor, 3236 mg of liquid sucrose, 26.5 mg antifoam, 20 mg polysorbate. The ingredients were added to RO water adjusted to 90 ppm hardness with calcium chloride and magnesium chloride. The acidity of the product was adjusted to pH 4.5 with a mixture of succinic acid and Sodium succinate dibasic hexadydrate. The total concentration of succinic acid in solution was approximately 8 mM.
Each of the five tests employed the same bio-indicator organisms; Growth (+) versus no growth (−) established by visual inspection or spectrophotometrically. The organisms and the key (code) employed in FIGS. 5a-5e are as follows: Spores, M1 Paecilomyces/Byssochalmys nieva, Pespi isolate D16; C-7UP, Brettanomyces species, Pepsi Isolate; Spores, M6, Talaromyces flavus var. flavus ATCC 10512; Brettanomyces species, Pepsi isolate H202; Acetobacter species, Pepsi isolate “Atlanta”; an ascospore preparation of Saccharomyces cerevisiae strain 99(Spore) and Y3, Zygosaccharomyce baili, Pepsi isolate 906;. Samples were incubated for period of 16 weeks at 25° C. in vessels protective against evaporation. […]

Test [4] has the same test system. In words: Example 7: growth/no growth in green tea beverage pH 5.5, 16 weeks. Format: cell-based. The conditions noted are these: pH 5.5, read-out: minimum inhibitory concentration of DMDC required to preserve. The protocol: A single preparation of base beverage was employed to prepare each of five tests. The beverage formulation chosen mimics that of a green tea beverage composed per liter as follows: 170 mg Citrus Pectin; 500 mg honey granules 550 mg Acerola Dry Vitamin C, 1,332 mg green tea solid, 2,046 mg tea flavor; 65,590 mg granulated sucrose. The ingredients were added to RO water adjusted to 90 ppm hardness with calcium chloride and magnesium chloride. The acidity of the product was adjusted to pH 5.5 with a mixture of succinic acid and sodium succinate dibasic hexadydrate. The total concentration of succinic acid in solution was approximately 8 mM.
Each of the five tests employed the same bio-indicator organisms; Growth (+) versus no growth (−) established by visual inspection or spectrophotometrically. The organisms and the key (code) employed in FIGS. 6a-6e are as follows: Spores, M1 Paecilomyces/Byssochalmys nieva, Pespi isolate D16; C-7UP, Brettanomyces species, Pepsi Isolate; Spores, M6, Talaromyces flavus var. flavus ATCC 10512; Brettanomyces species, Pepsi isolate H202; Acetobacter species, Pepsi isolate “Atlanta”; an ascospore preparation of Saccharomyces cerevisiae strain 99(Spore) and Y3, Zygosaccharomyce baili, Pepsi isolate 906;. Samples were incubated for period of 16 weeks at 25° C. in vessels protective against evaporation. The results are depicted in FIGS. 6a-6e.

Test [5] can be described thus: Example 8: growth/no growth in energy beverage pH 2.85, 16 weeks. The conditions noted are these: pH 2.9, read-out: minimum inhibitory concentration of DMDC required to preserve. It is filed as cell-based. The protocol:
A single preparation of base beverage was employed to prepare each of five tests. The beverage formulation chosen mimics that of a Energy beverage and is composed per liter as follows: 209 mg Rebaudioside A (REB A), 248 mg Potassium Citrate 248 mg Flavor-vitamin mixture, 248 mg calcium lactate, 298 mg Xanthan gum, 668 mg citric acid 995 mg color, 995 mg Pomegranate flavor, 24900 mg erythritol. The ingredients were added to RO water adjusted to 90 ppm hardness with calcium chloride and magnesium chloride. The acidity of the product was adjusted to pH 2.85 with a mixture of citric acid and sodium citrate.
Each of the five tests employed the same bio-indicator organisms; Growth (+) versus no growth (−) established by visual inspection or spectrophotometrically. The organisms and the key (code) employed in FIGS. 7a-7e are as follows: Spores, M1 Paecilomyces/Byssochalmys nieva, Pespi isolate D16; C-8UP, Brettanomyces species, Pepsi Isolate; M6, Talaromyces flavus var. flavus ATCC 10512; Brettanomyces species, Pepsi isolate H2O2; Spores, M12 Penicillium camebertii (Pepsi isolate D1)”; an ascospore preparation of Saccharomyces cerevisiae strain 99(Spore) and Y3, Zygosaccharomyce baili Pepsi isolate 906;. Samples were incubated for period of 16 weeks at 25° C. in vessels protective against evaporation. The results are depicted in FIGS. 7a-7e.

For test [6], the system named is bio-indicator organisms (Zygosaccharomyce baili, Brettanomyces species, Saccharomyces cerevisiae, Paecilomyces lilacinus, Zygosaccharomyces bisporus …). The conditions noted are these: FIG. 2a; absence of cinnamic acid; pH 3.4; 16 weeks.
From the text: A single preparation of base beverage was employed to prepare each of five tests and consisted of 4% apple juice, 68 g sucrose/L, 52 g glucose/L, 2 g fructose/L prepared in batch water that was formulated to 90 ppm hardness with calcium chloride and magnesium chloride. A pH of 3.4 was achieved through combinations of malic acid and sodium malate for all preparations regardless of the presence or absence of lauric arginate or cinnamic acid. The total combined quantity of sodium malate and malic acid was near constant, but the ratio of malic acid and malate varied slightly given the presence or absence of lauric arginate or cinnamic acid. […] Where required, lauric arginate or cinnamic acid was supplemented from separately prepared stock solutions. Dimethyl dicarbonate was delivered by means of hypodermic needle (Hamilton syringe) through septum that sealed the test vessel against loss of moisture. Dimethyl dicarbonate stock solution consisted of 1 ml of dimethyl dicarbonate (1.25 g) in 49 ml of 100% ethanol (25 mg/ml).
Each of the five tests employed the same bio-indicator organisms; Growth (+) versus no growth (−) established by visual inspection or spectrophotometrically. […]
Test [7] has as its system vegetative forms of yeast, mold, and bacteria. The conditions noted are these: reported by the manufacturer of DMDC; cited from earlier work.

The text below walks through data of patent US20100151104A1, “Preservative System For Beverages Based On Combinations Of Trans-Cinnamic Acid, Lauric Arginate, And Dimethyl Dicarbonate” (priority 2008, published 2010).

As for `O=C1O[C@H]([C@@H](O)CO)C(O)=C1O` [ascorbic acid], the “effect on spore germination” value in test [1] (ascorbic acid alone at 400 ppm) is on record as “able to retard germination”.
Turning to `C/C=C/C=C/C(=O)[O-].[K+]` [Potassium sorbate, Potassium Sorbate, reference compound], the “prevention of spore germination” value in test [1] (Potassium sorbate alone at concentrations below 200 ppm) is on record as “unable to prevent spore germination”.
For the molecule `COC(=O)OC(=O)OC` [DMDC, dimethyl dicarbonate], in test [2] (commercial tea beverage (pH 3.3) with honey, DMDC 2.61 mM (350 ppm)), the stability against spoilage result is recorded as “unstable against spoilage”. Also, in test [2] (green tea formulation containing lemon flavor, DMDC alone), the “DMDC concentration that stabilized the formulation” value stood at 0.75 mM. In addition, the “concentration of DMDC tolerated by M1 and M6” value in test [3] is ≥ 200 ppm. The MIC is > 225 µg/mL in test [4] and < 125 µg/mL in test [5]. For the same molecule, the “DMDC required to inhibit the growth of all bio-indicator organisms” value in test [6] is reported as 0.95 mM. Besides, in test [7], the “concentration required to stabilize beverage for 16 weeks” value is on record as “at least 250 mg/liter”.
